Reference: patent US9301999B2 (priority 2009, dated 2016)
Several values for one entry are separate records, joined by “and”; a condition that tells them apart may be missing. Equal values may be shown once. Entries after “also recorded” stand apart in the source; their conditions may differ. Where no end group is shown, it is not given here.

How the values were obtained:
anti-PA IgG = system: anti-PA IgG; parameters: species or system Female C3H/HeN mice; settings: mouse, in vivo
anti-rPA IgG [1] = system: anti-rPA IgG; parameters: species or system female C3H/HeN mice; settings: mouse, in vivo
MC/9 mast cells = type: cell-based, murine; parameters: MCD10: concentration of peptide necessary to induce degranulation of 10% of mast cells: unit not given here
anti-rPA serum IgG = system: anti-rPA serum IgG; parameters: species or system C3H/HeN female mice; settings: mouse, in vivo
anthrax lethal toxin = system: anthrax lethal toxin; parameters: species or system C3H/HeN female mice; settings: mouse, in vivo
anti-rPA IgG [2] = system: anti-rPA IgG; parameters: species or system female C3H mice; settings: mouse, in vivo
anti-WNV IgG = type: in vivo, Female BALB/c mice; settings: nasal, days 0, 7 and 21, WNV antigen 1 μg + 0.25 or 1.25 nmoles peptide; ANOVA p<0.05

Substance	adjuvant activity as determined by serum anti-PA IgG endpoint titers (anti-PA IgG)	% MC/9 Degranulation (MC/9 mast cells)	serum anti-PA IgG geometric means titers (GMT), adjuvant activity (anti-rPA serum IgG)	lethal toxin neutralizing antibody response in serum (anthrax lethal toxin)	other results
KLKLLLLLKLK-OH	did not provide adjuvant activity	–	–	–	–
KLKLLLLLKLK-NH2	did not provide adjuvant activity	–	–	–	–
INLKALAALAKKIL [Mastoparan-OH]	provided adjuvant activity	–	–	–	serum anti-rPA IgG titer versus mice immunized with rPA alone (anti-rPA IgG [1]): not significantly different
INLKALAALAKKIL-NH2 [Mastoparan]	provided adjuvant activity	66.60%	significantly increased	neutralized anthrax lethal toxin; also recorded: significantly increased versus all other groups	MCD10: concentration of peptide necessary to induce degranulation of 10% of mast cells (MC/9 mast cells): 33.07; mast cell degranulation (β-hexosaminidase released into the culture medium) (MC/9 mast cells): induced mast cell degranulation; serum anti-rPA IgG titer versus mice immunized with rPA alone (anti-rPA IgG [1]): significantly greater
INLKAKAALAKKLL-OH [Mastoparan 17]	did not provide adjuvant activity	0%	did not provide detectable adjuvant activity	did not induce lethal toxin neutralizing responses greater than those detected in mice immunized with rPA alone	–
cholera toxin [CT, reference compound]	–	–	did not significantly augment	–	Tukey's Multiple Comparison Test versus rPA, Significant? P < 0.05? (anti-rPA IgG [2]): Yes
INLKALAALAKALL [Mastoparan 7, INLKALAALAKALL—NH2, reference compound]	–	50.25% and 80.20%	significantly increased	neutralized anthrax lethal toxin; also recorded: significantly increased versus all other groups	% Mast Cell Degranulation (MC/9 mast cells): 72.33% and 54.35% and 39.12%; MCD10: concentration of peptide necessary to induce degranulation of 10% of mast cells (MC/9 mast cells): 6.31; mast cell degranulation (β-hexosaminidase released into the culture medium) (MC/9 mast cells): induced mast cell degranulation; EC50 (MC/9 mast cells; read-out: MCD50: concentration of peptide necessary to induce degranulation of 50% of mast cells): 18.1 µM; Anti-WNV IgG titers in sera on day 28, versus antigen alone (anti-WNV IgG): significantly greater; serum anti-rPA IgG titers, difference between the -OH and -NH2 forms (anti-rPA IgG [1]): no significant difference
I N L K A L A A L A K A L L [MP7-OH]	–	–	–	–	% Mast Cell Degranulation (MC/9 mast cells): 2.87%; serum anti-rPA IgG titers, difference between the -OH and -NH2 forms (anti-rPA IgG [1]): no significant difference
